Reference: US7906657B2 (Merck Patent Gesellschaft MIT Beschraenkter Haftung, priority 2006, dated 2011)

Biological target: T1, Recombinant human HSP90α (Homo sapiens, UniProt P07900)
T1 construct: host or cells: E. coli
Experiment: radioligand filter binding test with [3H]17AAG (HSP90 inhibition)
Settings: competition with [3H]17AAG 0.08 μM; HSP90 1.5 μg/assay; 22° C., 30 min
Source text: Test Method for the Measurement of HSP90 Inhibitors
The binding of geldanamycin or 17- allylamino-17-demethoxygeldanamycin (17AAG) to HSP90 and competitive inhibition thereof can be utilised in order to determine the inhibitory activity of the compounds according to the invention (Carreras et al. 2003, Chiosis et al. 2002).
In the specific case, a radioligand filter binding test is used. The radio-ligand used here is tritium-labelled 17-allylaminogeldanamycin, [3H]17AAG. This filter binding test allows a targeted search for inhibitors which interfere with the ATP binding site.
Recombinant human HSP90α (E. coli expressed, 95% purity);
[3H]17AAG (17-allylaminogeldanamycin, [allylamino-2,3-^3H. Specific activity: 1.11×10^12 Bq/mmol (Moravek, MT-1717);
HEPES filter buffer (50 mM HEPES, pH 7.0, 5 mM MgCl2, BSA 0.01%) Multiscreen FB (1 μm) filter plate (Millipore, MAFBNOB 50).
The 96-well microtitre filter plates are firstly irrigated and coated with 0.1% of polyethylenimine.
The test is carried out under the following conditions:
Reaction temperature 22° C.
Reaction time: 30 min., shaking at 800 rpm
50 mM HEPES HCI, pH 7.0, 5 mM MgCl2, 0.01% (w/v) BSA
At the end of the reaction, the supernatant in the filter plate is removed by suction with the aid of a vacuum manifold (Multiscreen Separation System, Millipore), and the filter is washed twice.
The filter plates are then measured in a beta counter (Microbeta, Wallac) with scintillator (Microscint 20, Packard).
“% of control” is determined from the “counts per minutes” values and the IC-50 value of a compound is calculated therefrom.

SMILES	IC50 [nM]
CN(Cc1ccccc1)C(=O)c1cc(-c2ccnn2-c2ccccc2Cl)c(O)cc1O [Compound A2, 5-[5-(N-Benzyl-N-methylaminocarbonyl)-2,4-dihydroxyphenyl]-1-(2-chlorophenyl)-1H-pyrazole]	44
Cc1ccccc1-n1nccc1-c1cc(C(=O)N(C)Cc2ccc(F)cc2)c(O)cc1O [Compound A5, 5-{5-[N-(4-Fluorobenzyl)-N-methylaminocarbonyl]-2,4-dihydroxyphenyl}-1-(2-methylphenyl)-1H-pyrazole]	43
Cc1ccccc1-n1nccc1-c1cc(C(=O)N(C)Cc2ccccc2F)c(O)cc1O [Compound A6, 5-{5-[N-(2-Fluorobenzyl)-N-methylaminocarbonyl]-2,4-dihydroxyphenyl}-1-(2-methylphenyl)-1H-pyrazole]	54
Cc1ccccc1-n1nccc1-c1cc(C(=O)N(C)Cc2cccc(F)c2)c(O)cc1O [Compound A7, 5-{5-[N-(3-Fluorobenzyl)-N-methylaminocarbonyl]-2,4-dihydroxyphenyl}-1-(2-methylphenyl)-1H-pyrazole]	30
COc1ccccc1CN(C)C(=O)c1cc(-c2ccnn2-c2ccccc2C)c(O)cc1O [Compound A9, 5-{5-[N-(2-Methoxybenzyl)-N-methylaminocarbonyl]-2,4-dihydroxyphenyl}-1-(2-methylphenyl)-1H-pyrazole]	40
Cc1ccccc1-n1nccc1-c1cc(C(=O)N(C)Cc2ccccc2)c(O)cc1O [Compound A17, 5-[5-(N-Benzyl-N-methylaminocarbonyl)-2,4-dihydroxyphenyl]-1-(2-methylphenyl)-1H-pyrazole]	33
Cc1ccccc1-n1nccc1-c1cc(C(=O)N(C)Cc2cccc(Br)c2)c(O)cc1O [Compound A20, 5-{5-[N-(3-Bromobenzyl)-N-methylaminocarbonyl]-2,4-dihydroxyphenyl}-1-(2-methylphenyl)-1H-pyrazole]	31
Cc1ccccc1CN(C)C(=O)c1cc(-c2ccnn2-c2ccccc2C)c(O)cc1O [Compound A23, 5-{5-[N-(2-Methylbenzyl)-N-methylaminocarbonyl]-2,4-dihydroxyphenyl}-1-(2-methylphenyl)-1H-pyrazole]	27
Cc1ccc(CN(C)C(=O)c2cc(-c3ccnn3-c3ccccc3C)c(O)cc2O)c(C)c1 [Compound A24, 5-{5-[N-(2,4-Dimethylbenzyl)-N-methylaminocarbonyl]-2,4-dihydroxyphenyl}-1-(2-methylphenyl)-1H-pyrazole]	20
Cc1ccccc1-n1nccc1-c1cc(C(=O)N(C)Cc2ccc3c(c2)OCO3)c(O)cc1O [Compound A25]	54
Cc1ccccc1-n1nccc1-c1cc(C(=O)N(C)Cc2c(F)cccc2Cl)c(O)cc1O [Compound A30, 5-{5-[N-(2-Chloro-6-fluorobenzyl)-N-methylaminocarbonyl]-2,4-dihydroxyphenyl}-1-(2-methylphenyl)-1H-pyrazole]	26
COc1ccc(CN(C)C(=O)c2cc(-c3ccnn3-c3ccccc3C)c(O)cc2O)c(OC)c1 [Compound A31, 5-{5-[N-(2,4-Dimethoxybenzyl)-N-methylaminocarbonyl]-2,4-dihydroxyphenyl}-1-(2-methylphenyl)-1H-pyrazole]	320
COc1ccc(Cl)cc1CN(C)C(=O)c1cc(-c2ccnn2-c2ccccc2C)c(O)cc1O [Compound A32, 5-{5-[N-(3-Chloro-6-methoxybenzyl)-N-methylaminocarbonyl]-2,4-dihydroxyphenyl}-1-(2-methylphenyl)-1H-pyrazole]	52
Cc1ccccc1-n1nccc1-c1cc(C(=O)N(C)Cc2ccc(Cl)cc2Cl)c(O)cc1O [Compound A35, 5-{5-[N-(2,4-Dichlorobenzyl)-N-methylaminocarbonyl]-2,4-dihydroxyphenyl}-1-(2-methylphenyl)-1H-pyrazole]	220
CN(Cc1ccccn1)C(=O)c1cc(-c2ccnn2-c2ccccc2Cl)c(O)cc1O [Compound A60, 5-{5-[N-(Pyridin-2-ylmethyl)-N-methylaminocarbonyl]-2,4-dihydroxyphenyl}-1-(2-chlorophenyl)-1H-pyrazole]	160
